Residues, ends and D or L forms follow the SMILES beside them. No end group written: not given here. *: point of attachment. Cbz = O=C(OCc1ccccc1)*
Assays:
[1] = test system: cortical neuronal cultures; test: Sublethal stretch injury with or without NMDA, cell death in cortical cultures; assay type: cell-based
Protocol: […]. In brief, cerebral cortices from 10 to 12 embryos were incubated for 10 min in 0.05% trypsin-EDTA, dissociated by trituration, and plated on flexible membranes coated with poly-L-ornithine in 6 well plates (Flexcell International Corporation, Hillsborough, N.C.) at a density of 3.25×10^6 cells per well. Plating medium consisted of DMEM supplemented with 10% heat-inactivated horse serum (Gibco) and (in mM) 2 glutamine, 25 glucose, and 26 bicarbonate. The cultures were maintained at 37° C. in a humidified 5% CO2 atmosphere. After 3 days in vitro, growth of non-neuronal cells was halted by a 48 h exposure to 10 μM FDU-solution (5 μM uridine, 5 μM (+)-5-fluor-2′-deoxyuridine). This produces cultures in which >85% of the cells are neurons, based on immunohistochemical staining for glial fibrillary associated protein (exclusive to astrocytes), and for the NMDAR1 subunit (not shown). The cultures were used for experiments after 12-14 days in vitro.
The cultures, grown on silastic membranes as above, were placed in the Flexercell® FX-3000™ Strain Unit (Flexcell Int., Inc.), a computer-driven instrument that uses a vacuum pulse to deform the culture substrate. In all experiments, the cortical cultures were stretched to 130% of their original length for 1 s, inducing a sublethal injury as recently characterized by us (Arundine et al., 2003). The stretched neurons maintained cell membrane integrity, viability, and electrophysiological function.
Cell death was determined by serial quantitative measurements of propidium iodide (PI) fluorescence using a multiwell plate fluorescence scanner (Cytofluor II, PerSeptive Biosytems, Framingham, Mass., USA) as described previously (Sattler et al., 1997; Sattler et al., 1998). In brief, the culture medium in each tissue culture well was replaced with control solution containing 50 μg/ml PI, and a baseline fluorescence reading was taken. Sequential readings were then taken at appropriate intervals over the 20 h observation period. The fraction of dead cells in each culture at a given time was calculated as: Fraction dead=(Ft−Fo)/FNMDA Where Ft=PI fluorescence at time t, F0=initial PI fluorescence at time zero and FNMDA=background subtracted PI fluorescence of identical cultures from the same dissection and plating, 20-24 h after a 60 min exposure to 1 mM NMDA at 37° C. Based on manual observations at the time of validation of this technique, this NMDA exposure routinely produced near complete neuronal death in each culture but had no effect on surrounding glia (also see (Bruno et al., 1994; David et al., 1996; Sattler et al., 1997)). Adding Triton X-100 (0.1%) to cultures treated in this manner produced an additional 10-15% increase in PI fluorescence due to permeabilization of non-neuronal cell membranes, consistent with a 10-15% glial component in the cultures.
All experiments were performed at 37° C. Unless otherwise indicated, all solutions contained nimodipine (2 μM) and CNQX (10 μM) to restrict the actions of applied NMDA to NMDARs by preventing the secondary activation of other pathways (Sattler et al., 1998). In general, the cultures were washed ×2 with control solution and immediately stretched to 130% of their original length for 1 s. After the stretch, they were washed ×1 with control solution alone or challenged with an additional treatment (e.g., NMDA) and placed at 37° C. for 1 h. They were then washed ×1 with control solution and then with control solution containing 50 μg/ml PI to obtain a baseline reading. In pilot studies, baseline readings obtained at this stage were similar to those obtained by staining the cells with PI prior to stretch. As the stretch causes splashing of the bath solution, staining with PI after stretch reduced biohazard potential and artifacts associated with PI outside the culture well. Unstretched controls were manipulated identically to stretched cultures.

[2] = test system: cultured cortical neurons; test: NMDA excitotoxicity in cultured cortical neurons (propidium iodide fluorescence); assay type: cell-based, mouse
[3] = test system: cortical neuronal cultures; test: DNA fragmentation assays (TUNEL, DNA gel electrophoresis); assay type: cell-based, mouse; conditions: 20 h post-insult; 200 μM MnTBAP or 100 μM L-NAME
Description: DNA fragmentation was examined using the terminal deoxynucleotidyl transferase-mediated end nick labeling (TUNEL) method (Gavrieli et al., 1992; Didenko and Hornsby, 1996; Didenko et al., 1998) and by DNA agarose gel electrophoresis (Hill et al., 2000).
TUNEL Assay: Nuclear DNA strand breaks were detected by enzymatically labeling free 3′-OH termini with modified nucleotides provided in the Apoptag kit (Intergen) using the manufacturer's instructions. Visualization of TUNEL-stained nuclei was achieved using an anti-digoxigenin antibody conjugated to a fluorescein or peroxidase reporter molecule (ApopTag Peroxidase Kits S7110 and S7100, respectively, Intergen). In fluorescence experiments, nuclei were counterstained using 5 ng/ml Hoechst 33258 (1:5000, Transduction Labs), and visualized using 465-495 nm excitation and 515-555 nm emission for fluorescein and 340 nm excitation and 510-40 nm emission for Hoechst. The number of TUNEL positive cells was expressed as a fraction of the total cell number in the field. In each culture, 4-8 random fields were quantified. Approximately 100-200 cells were counted per culture, and at least 3 experiments were performed for each set of counts.
DNA Gel Electrophoresis: DNA laddering was evaluated as described elsewhere (Hill et al., 2000). In brief, all tissue was collected from each culture well and pelleted by centrifugation (1000 rpm; 1 min). The cells were digested for 2 h at 56° C. in buffer containing (in mM) 10 Tris pH 8.0, 2 EDTA pH8, 400 NaCl, 0.5% SDS, 1 mg/ml proteinase K. Digest solution was subjected to phenol/chloroform extraction and total DNA was precipitated from the aqueous layer with an equal volume of 100% ethanol. The DNA pellet was dried, dissolved in 50 μl ddH20 and kept overnight at 4° C. 10 μg DNA was prepared on a 2% agarose gel. Gels were stained with ethidium bromide and photographed.

[4] = Physiological variables in pre-treatment MCAO study; assay type: in vivo, Sprague-Dawley rats
Protocol: Next, I examined whether pretreatment with Tat-peptides would reduce stroke damage. Experiments were carried out in adult male Sprague-Dawley rats subjected to transient middle cerebral artery occlusion (MCAO) for 90 minutes by the intraluminal suture method (36,37). Animals were fasted overnight and injected with atropine sulfate (0.5 mg/kg IP). After 10 minutes anesthesia was induced with 3.5% halothane in a mixture of nitrous oxide and oxygen (Vol. 2:1) and maintained with 0.8% halothane. Rats were orally intubated, mechanically ventilated, and paralyzed with pancuronium bromide (0.6 mg/kg IV). Body temperature was maintained at 36.5-37.5° C. with a heating lamp. Polyethylene catheters in the femoral artery and vein were used to continuously record blood pressure and to sample blood for gas and pH measurements. […] This produces an extensive infarction encompassing the cerebral cortex and basal ganglia. […] Physiological parameters (body temperature, blood pressure, blood gases) were monitored and maintained throughout the experiment (Table 1). All experimental manipulations and analyses of data were performed by individuals blinded to the treatment groups. The extent of cerebral infarction was measured 24 h after MCAO onset (FIG. 7C inset). The postural reflex test (38), and the forelimb placing test (39) were used to grade neurological function on a scale of 0 to 12 (normal=0; worst=12) during MCAO (at 50 minutes) and 24 h thereafter.

[5] = Physiological variables in post-treatment MCAO study; assay type: in vivo, Sprague-Dawley rats
Protocol: Next, I examined whether treatment with Tat-NR2B9c could attenuate ischemic neuronal damage in-vivo when given after stroke onset. […] Infarction volume and neurological outcome measurements were performed at times identical to the pre-treatment study. Body temperature, blood pressure and blood gases were monitored throughout the 24 h experiment and maintained equivalent between groups (Table 2).

[6] = test system: transient unilateral middle cerebral artery occlusion; conditions: MCAO 90 min

Molecule: CC(C)[C@H](NC(=O)OCc1ccccc1)C(=O)N[C@H](C=O)Cc1ccccc1 [Calpain inhibitor III, z-val-phe-CHO] (Cbz-Val-Phe-aldehyde)
- heightened vulnerability of stretched neurons to NMDA ([1]; 10 μM): not reduced
- toxic effects in control or stretched cultures ([1]; 10 μM): no toxic effects
- protection of cells challenged with 30 μM or 1 mM NMDA ([1]; 10 μM, whether or not stretched): slightly protected

Molecule: COC(=O)[C@@H](N)CCCNC(=N)N[N+](=O)[O-] [L-NAME, N^G-nitro-L-arginine methyl ester]
- enhanced vulnerability of stretched neurons to NMDA ([1]; 100 μM, 30 min preincubation): completely eliminated the enhanced vulnerability
- toxicity of 30 μM NMDA in unstretched neurons ([1]; 100 μM, 30 min preincubation): reduced the toxicity
- protection against NMDA toxicity ([2]; cultured cortical neurons): protected
- DNA laddering after stretch followed by NMDA [3]: virtually abolished
- TUNEL staining after stretch followed by NMDA [3]: virtually abolished

Molecule: YGRKKRRQRRRKLSSIEADA [Tat-NR2B-AA, reference compound]
- toxic effects in control or stretched cultures ([1]; 50 nM): no toxic effects
- Body Temperature ([4]; After MCAo (15 min)): 36.8 ± 0.08 °C
- Body Temperature ([4]; After MCAo (24 hr)): 37.0 ± 0.25 °C
- Body weight ([4]; After MCAo (24 hr)): 244 ± 6 g
- Body Temperature ([4]; Before MCAo(15 min)): 36.6 ± 0.15 °C
- MABP ([4]; Before MCAo(15 min)): 115 ± 5 mmHg
- Blood gases PCO2 ([4]; Before MCAo(30 min)): 39.1 ± 1.4 mmHg
- Blood gases PH ([4]; Before MCAo(30 min)): 7.44 ± 0.02
- Blood gases PO2 ([4]; Before MCAo(30 min)): 110 ± 7 mmHg
- Body Temperature ([4]; Before MCAo(30 min)): 36.5 ± 0.12 °C
- MABP ([4]; Before MCAo(30 min)): 110 ± 4 mmHg
- Body Temperature ([4]; Before MCAo(45 min)): 36.7 ± 0.17 °C
- MABP ([4]; Before MCAo(45 min)): 115 ± 5 mmHg
- Body weight ([4]; Before anesthesia): 273 ± 7 g
- Blood gases PCO2 ([4]; During MCAo (5 min)): 39.6 ± 0.5 mmHg
- Blood gases PH ([4]; During MCAo (5 min)): 7.44 ± 0.02
- Blood gases PO2 ([4]; During MCAo (5 min)): 109 ± 4 mmHg
- Body Temperature ([4]; During MCAo (5 min)): 36.6 ± 0.17 °C
- MABP ([4]; During MCAo (5 min)): 135 ± 7 mmHg
- Body Temperature ([4]; During MCAo (15 min)): 36.7 ± 0.15 °C
- MABP ([4]; During MCAo (15 min)): 111 ± 6 mmHg
- Body Temperature ([5]; After MCAo (15 min)): 36.9 ± 0.23 °C
- MABP ([5]; After MCAo (15 min)): 116 ± 4 mmHg
- Body Temperature ([5]; After MCAo (24 hr)): 36.7 ± 0.27 °C
- Body weight ([5]; After MCAo (24 hr)): 276 ± 6 g
- Blood gases PCO2 ([5]; Before MCAo(15 min)): 37.9 ± 1.1 mmHg
- Blood gases PH ([5]; Before MCAo(15 min)): 7.45 ± 0.01
- Blood gases PO2 ([5]; Before MCAo(15 min)): 113 ± 4 mmHg
- Body Temperature ([5]; Before MCAo(15 min)): 36.7 ± 0.07 °C
- MABP ([5]; Before MCAo(15 min)): 103 ± 6 mmHg
- Body weight ([5]; Before anesthesia): 301 ± 5 g
- Blood gases PCO2 ([5]; During MCAo (15 min)): 48.0 ± 1.2 mmHg
- Blood gases PH ([5]; During MCAo (15 min)): 7.46 ± 0.01
- Blood gases PO2 ([5]; During MCAo (15 min)): 108 ± 2 mmHg
- Body Temperature ([5]; During MCAo (15 min)): 36.7 ± 0.11 °C
- MABP ([5]; During MCAo (15 min)): 121 ± 5 mmHg
- Body Temperature ([5]; During MCAo (60 min)): 37.0 ± 0.31 °C
- MABP ([5]; During MCAo (60 min)): 149 ± 4 mmHg
- Body Temperature ([5]; During MCAo (65 min)): 37.0 ± 0.29 °C
- MABP ([5]; During MCAo (65 min)): 136 ± 5 mmHg
- Mean (SE) core temperature during surgery [6]: 37.2 (∀0.2)
- Mean (SE) core temperature subsequent to surgery [6]: 37.3 (∀0.1)
- Mean (SE) systolic blood pressure during surgery [6]: 109 (∀5.9)
- Mean (SE) systolic blood pressure prior to surgery [6]: 113 (∀8.8)
- Mean (SE) systolic blood pressure subsequent to surgery [6]: 115 (∀5.9)
- Mean (SE) core temperature prior to surgery ([6]; drug i.v. 3 hours after onset of ischemia): 36.9 (∀0.1)

B1: pTat-GK: Tat fusion protein containing residues 534-724 of PSD-95, guanylate-kinase homology domain; control (protein)
chain: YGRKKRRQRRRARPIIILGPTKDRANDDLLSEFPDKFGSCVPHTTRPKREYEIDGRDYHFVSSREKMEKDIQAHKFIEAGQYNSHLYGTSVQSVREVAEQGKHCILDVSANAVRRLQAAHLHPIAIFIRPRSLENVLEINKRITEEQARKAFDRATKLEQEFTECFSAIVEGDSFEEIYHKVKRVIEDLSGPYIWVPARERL
modifications: left off: small tags and cut ends
notes: Tat fusion protein containing residues 534-724 of PSD-95, guanylate-kinase homology domain; control
- enhanced cell mortality in stretched neurons by NMDA challenge, post-treatment ([1]; 50 nM applied after terminating the 1 h NMDA challenge): ineffective
- NMDA-evoked cell death, pre-treatment ([2]; 50 nM for 1 h, then NMDA 0-100 μM 1 h, 20 h observation): had no effect
